The values that follow come from patent US20130274233A1, “MODULATORS OF HEDGEHOG SIGNALING PATHWAY” (priority 2012, published 2013).

One test concerns Smo. In words: Bodipy-cyclopamine competition assay in Cos 7 cells expressing Smo. The test is classed as binding. To be noted: for competition of Bodipy-Cyc binding to Smo: cells over-expressing Smo, 5 nM Bodipy-cyclopamine. How it is done: Cos 7 cells were transfected with a plasmid co-expressing Smo and a nuclear localized form of tagRFPT (pCIT-Smo). An empty parental construct (pCIT), and a construct that co-expresses SmoM2, were used as controls to assess specificity and background noise. Three days after transfection, cells were incubated with 5 nM Bodipy-cyclopamine, with or without other compounds for 1 hour at 37 °C. Cells were washed, fixed and stained with Hoechst. Images were collected by an Opera High Content Screen System. Bodipy fluorescence was quantified specifically for transfected cells (determined by red tagRFPT+ nucleus) using a program developed by the authors with Acapella 2.0 software. All of the images were scanned with identical microscopic settings and analyzed with the same input parameters.
Cos 7 cells were transfected with a plasmid that co-expresses Smo and a nuclear localized tagRFPT marker (pCIT-Smo). The empty parental construct (pCIT) and a construct that co-express SmoM2 were used as controls to assess specificity and background signal. Three days after transfection, cells were incubated with 5 nM Bodipy-cyclopamine, with or without additional compounds, for 1 hour at 37° C. Cells were then fixed and stained with Hoechst. Images were collected with the Opera High Content Screen System. Fluorescence values were assessed in transfected cells (red nuclei) with a program developed by the authors using Acapella 2.0 software. All of images were scanned with identical microscopic setting and analyzed with the same input parameters.

In a further test the test system is Wnt signaling activity. In words: Wnt Top-flash reporter assay. Type of test: cell-based. Particulars: with or without Wnt3a. On the procedure:
(§1) Hh activity assays were performed using ShhLightll cells, Smo/Lightll cells, SmoM2/Lightll cells, and suFU−/− mouse embryonic fibroblasts. In the suFU−/− cells, Hh activity was measured after co-transfection with Gli driven firefly luciferase and TK-renilla luciferase reporters^41. Wnt activity was measured in 293 cells co-transfected with Top-flash and TK-renilla luciferase reporters^42. Cells were cultured and treated in 96 well assay plates (Corning) and incubated with Duo-Glo luciferase substrates (Promega) to measure firefly and renilla luciferase activity sequentially using a Top Count NX Microplate Scintillation and Luminescence Counter (Perkin Elmer). The renilla luciferase signal was used to normalize the firefly reporter activity.
(§2) ShhLightII cells and SmoM2/LightII cells were cultured and treated in 96 well assay plates (Corning) and incubated with Duo-Glo luciferase substrates (Promega) to sequentially measure firefly and renilla luciferase activity. Smo, or GFP, expression plasmids were co-transfected into 3T3 cells together with a Gli-responsive firefly reporter and a TK-renilla luciferase reporter contruct to monitor effects of Smo overexpression. Co-transfection of the two reporter constructs was conducted in assays measuring Hh pathway activity in suFU−/− cells. Wnt activity was measured following co-transfection of a Top-flash and renilla luciferase reporter. In both Hh and Wnt activity assays, renilla luciferase reporter activity, or mass of protein, was used to normalize expression values. Luciferase signal was read by TopCount NX Microplate Scintillation and Luminescence Counter (Perkin Elmer). Quantitative PCR probes for Ptch1, Gli1, and β-actin were purchased from Applied Biosystems. Reactions and measurements were performed using on an Applied Biosystems 7900HT at Harvard FAS Center of System Biology. β-actin was used to normalize Ptch1 and Gil1 values.

In test [1] the test system is Hh pathway activity. In words: Gli-luciferase reporter assay, Shh-induced Hh pathway activity (ShhLightII cells). The test is classed as cell-based.
Source text: NIH/3T3 cells were maintained in DMEM containing 10% (v/v) calf serum, penicillin, streptomycin, and L-glutamine. HEK293, L, cos 7, and suFU−/− mouse embryonic fibroblast cells were maintained in DMEM containing 10% (v/v) fetal bovine serum, penicillin, streptomycin, and L-glutamine. Smo::EGFP, SmoM2::GFP, and Ivs::tagRFPT were cloned into pBabe to generate retroviral particles for infection. Smo::EGFP/Ivs::tagRFPT and SmoM2::GFP/Ivs::tagRFPT stable cell lines were generated through viral infection of NIH/3T3^12. A ShhLightII Gli reporter cell line was obtained from the American Type Culture Collection (ATCC) and used in luciferase reporter assays to measure Hh pathway activity. The cell line contains a stably integrated Gli-responsive Firefly luciferase reporter and a constitutive Renilla luciferase expression construct^33. Subclones expressing Smo or SmoM2 in ShhLightII cells were used for chemical epistasis analyses.
as §1, §2

Test [2] deals with cerebellar granule neuron precursors (CGNPs) from P7 Ptch1+/− mice. In words: CGNP proliferation assay (pH3 positive cells). Type of test: cell-based. On the procedure: CGNP primary cells were isolated from P7 Ptch1+/− mice as previously reported^43 and immediately seeded in poly-D-lysine coated imaging plates (Greiner Bio-one). Compounds were applied 2 hours post seeding, for either 36 (FIG. 5a-b) or 72 hours (FIG. 5d-e). After completion of each experimental regimen, cells were fixed with 4% paraformaldehyde (Electron Microscopy Sciences), and stained with anti-pH3 antibody (Upstate; 1:100) followed by a secondary antibody (Invitrogen) and Hoechst (Invitrogen). Images were then collected using a confocal microscope. Cell proliferation, as marked by a pH3 signal, was quantified with an in-house program developed by the authors using Acapella 2.0 software. Identical microscopic settings were used in each analysis and identical input parameters were implemented for each experiment.
CGNP primary cells were isolated from P7 Ptch1+/− mice as previously reported^44. Cells were seeded in poly-D-lysine coated imaging plates (Greiner Bio-one), treatments were applied 2 hours thereafter and last for 36 hours. Cells then were fixed with 4% paraformaldehyde (Electron Microscopy Sciences), and stained with anti-pH3 antibody (Upstate; 1:100) followed by a secondary antibody (Invitrogen) and Hoechst (Invitrogen). Images were collected and cell proliferation quantified with a program developed by the authors utilizing Acapella 2.0 software. All of the images in each experiment were collected with identical microscopic settings and analyzed with identical input parameters.

The test system of test [3] is Hh pathway activity. In words: Priming and withdrawal of compound followed by Shh stimulation, Gli-luciferase reporter (hypersensitivity). Type of test: cell-based. Particulars: for hypersensitivity to Hh pathway stimulation after priming with and removal of compound, Gli-luciferase: priming 24 hours, washout, then Shh (or SAG) stimulation. On the procedure: as §1
Following the removal of drug containing medium, and extensive washing, cells were stimulated with either Hh ligand, or the direct-binding Smo agonist SAG^17,18.
as §2

For `CCN(CC)c1ccc(/C=N/NC(=O)c2ccc(O)cc2)cc1` [DY131], the IC50 is 100 nM in the test with Smo (Cos7/Smo expression, stimulus none, read-out: IC50, competition of BODIFY-cyclopamine-Smo binding); 2000 nM with Hh pathway activity [1] (Mus musculus, Shh Light II, 3T3/Shh-LightII cells, stimulus Shh, read-out: IC50, inhibition of Shh-induced expression of Gli-luciferase reporter); below 625 nM in test [2] (Mus musculus, Neuron, pH 3, Ptch ± CGNP, stimulus Shh, read-out: IC50, Shh induced cell proliferation marked by pH 3). For the same compound, the “competition of Bodipy-Cyc binding to Smo” value in the test on Smo was “effective competitor”. Further, the “effect on Wnt pathway reporter activity” value in the test on Wnt signaling activity is on record as “absence of an inhibitory activity”. The “Shh driven hyperactivation after removal of compound, CGNP proliferation assay” value in test [2] (CGNPs, after removal of compound) was “no Shh driven hyperactivation”. Besides, in test [2] (Ptch1+/− CGNPs, Shh), the “effect on Shh-induced pH3 marked proliferation of CGNPs” value is recorded as “dramatically decreased”. For the same compound, the “hypersensitivity to Hh pathway stimulation after priming with and removal of compound, Gli-luciferase” value in the test on Hh pathway activity [3] is given as “no Shh driven hyperactivation”.
Consider `CC1(C)O[C@@H]2C[C@H]3[C@@H]4C[C@H](F)C5=CC(=O)C=C[C@]5(C)[C@@]4(F)[C@@H](O)C[C@]3(C)[C@]2(C(=O)CO)O1` [FA, fluocinolone acetonide], for which, in the test on Smo, the “competition of Bodipy-Cyc binding to Smo” value was “dose-dependent competition”. Besides, the “effect on Wnt pathway reporter activity” value with Wnt signaling activity is “no change was detected”. For the same compound, the “effect of co-stimulation on Shh-induced transcriptional response” value in the test with Hh pathway activity [1] (10 μM FA together with Shh) is “dose-dependent enhancement”. For the same compound, the “effect on GDC0449 inhibition of Shh-stimulated CGNP proliferation” value in test [2] (FA 10 μM co-administered with GDC0449) was “impaired”. The “Shh-driven CGNP proliferation” value in test [2] (FA 10 μM with Shh) is listed as “markedly enhanced”. In addition, in test [2] (FA 120 μM), the “number of proliferative pH3 positive CGNPs” value was “elevated”. Also, in the test with Hh pathway activity [3] (cells treated 24 hours, compound withdrawal prior to Shh addition, read-out: EC50 of induced response to priming), the EC50 is around 4000 nM. In addition, the “hypersensitivity to Hh pathway stimulation after priming with and removal of compound, Gli-luciferase” value in the test on Hh pathway activity [3] is given as “higher induction of pathway activity”.
